We go through 1 compound from paper PMC10150366, “Discovery of an In Vivo Chemical Probe for BCL6 Inhibition by Optimization of Tricyclic Quinolinones” (Journal of Medicinal Chemistry, 2023).

Assay [1] has as its target GABAA (Homo sapiens, UniProt P14867+P18507+P47870). Briefly: SAFETYscan Ion Channel GABAA Blocker. The class given is cell-based. The source says:
(§1) Supplement jm3c00155_si_002.xlsx, sheet "SAFETYScan" | column: RC50 (uM); Max Response

Assay [2] concerns the target MAOA (Homo sapiens, UniProt P21397). Nature of the assay: SAFETYscan Enzymatic MAOA Inhibitor. The assay is classed as biochemical.
Source text: as §1

Assay [3] concerns the target T1, HTR1A (Homo sapiens, UniProt P08908).
T1 sequence (P08908 1-422): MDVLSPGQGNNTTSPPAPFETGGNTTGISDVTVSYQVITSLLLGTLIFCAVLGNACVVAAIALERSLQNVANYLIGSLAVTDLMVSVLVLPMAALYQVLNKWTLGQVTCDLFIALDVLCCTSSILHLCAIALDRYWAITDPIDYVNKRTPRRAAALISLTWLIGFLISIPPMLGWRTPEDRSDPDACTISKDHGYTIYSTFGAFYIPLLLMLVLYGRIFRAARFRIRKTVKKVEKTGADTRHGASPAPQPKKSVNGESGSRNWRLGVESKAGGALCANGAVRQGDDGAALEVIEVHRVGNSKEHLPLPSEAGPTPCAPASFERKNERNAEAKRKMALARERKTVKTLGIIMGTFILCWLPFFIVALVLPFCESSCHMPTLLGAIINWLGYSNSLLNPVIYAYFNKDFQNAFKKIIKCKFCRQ
Nature of the assay: SAFETYscan cAMP HTR1A Agonist. The assay is classed as cell-based.
Source text: as §1

In assay [4] the target is T2, ADRA2A (Homo sapiens, UniProt P08913).
T2 sequence (P08913 1-465): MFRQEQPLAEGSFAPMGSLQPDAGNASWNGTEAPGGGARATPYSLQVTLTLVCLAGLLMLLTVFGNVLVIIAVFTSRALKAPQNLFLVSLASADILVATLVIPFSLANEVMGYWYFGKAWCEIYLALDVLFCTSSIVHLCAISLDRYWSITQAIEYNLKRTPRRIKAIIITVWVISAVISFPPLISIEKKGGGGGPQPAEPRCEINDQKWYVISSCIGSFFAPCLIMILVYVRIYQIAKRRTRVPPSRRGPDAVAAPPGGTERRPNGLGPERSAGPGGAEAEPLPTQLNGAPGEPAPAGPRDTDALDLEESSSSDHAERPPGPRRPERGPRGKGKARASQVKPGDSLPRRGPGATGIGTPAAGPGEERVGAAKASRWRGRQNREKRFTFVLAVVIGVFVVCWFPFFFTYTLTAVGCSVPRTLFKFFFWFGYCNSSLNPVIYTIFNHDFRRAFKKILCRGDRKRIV
Nature of the assay: SAFETYscan cAMP ADRA2A Antagonist. The class given is cell-based.
Source text: as §1

Assay [5] has as its system ARID3A mRNA. Nature of the assay: ARID3A mRNA in Karpas 422 tumour xenografts (quantitative RT-PCR). The class given is in vivo, mouse. To be noted: 50 mg/kg PO, 12 h post dose, TaqMan PCR. As to the method: frozen in liquid nitrogen, dedicating one half to PK analysis and the other half to pharmacodynamic analysis (PD). All frozen material was permanently stored in a -80°C freezer.
5.3.5 Tumour lysis and Wes method
Tumours were lysed in lysis buffer (50 mM Tris-HCl, pH 7.4, 150 mM NaCl, 1% Triton X-100 (v/v), 1 mM PMSF, 1 mM activated sodium vanandate, 1 mM EDTA, phosphatase inhibitors 2 and 3 (1:50m dilution) and protease cocktail (1:100 dilution)) using reinforced homogenizing tubes containing metal beads using a Precellys 24 with cryolys cooling at 6000 rpm, 2 × 20 s (Stretton Scientific). Lysates were incubated on ice for 15 minutes, spun at 14000 rpm at 4 °C for 10 minutes and supernatants collected and aliquoted.
Samples were stored at -80 °C until use. Protein concentration was determined by diluting 1:10 with lysis buffer and measuring on Direct Detect® spectrometer according to manufacturer’s instructions.
Protein lysates were diluted to 0.0875 mg/ml with 0.1x sample buffer and run on Wes 12-230 kDa kit according to manufacturer’s instructions (ProteinSimple) with multiplexing BCL6 (CST14895 at 1:150 dilution) and GAPDH (CST 2118 at 1:50 dilution). Data was analysed using Compass for SW software. […]
5.3.6 Quantitative RT-PCR […]
(ThermoFisher Scientific). ARID3A expression relative to vehicle-treated tumours was determined using […]
In general terms: Quantitative PCR measures a nucleic acid by following its amplification.

Assay [6] concerns the target PDE4D2 (Homo sapiens, UniProt Q08499). Briefly: SAFETYscan Enzymatic PDE4D2 Inhibitor. The class given is biochemical.
Source text: as §1

For assay [7], the system named is SU-DHL-4. Nature of the assay: 14-day cell proliferation assay, SU-DHL-4. The assay is classed as cell-based. To be noted: Homo sapiens, 14-day assay. The source says: DMSO final concentration.
After a short centrifugation the
(1st emission filter) / 450-80 nm (2nd emission filter). The % inhibition at each test concentration was […]
sigmoidal four-parameter logistic fit equation.
2.3 Cell proliferation assay
Aldrich) supplemented with 10% FBS (Gibco). Compounds were initially dispensed into 96-well U-bottom […]
transferred onto the cells.
Assay plates containing cells
(Beckman Coulter). The volume of medium containing 2500 cells in the control well was calculated and this volume of cells was transferred from every well of the assay plates to the corresponding well of the fresh plates containing compound. After 14 days, CellTiter Glo reagent (Promega) was added to the medium in each well of the assay plate at a ratio of 1:2, mixed on a plate shaker, then incubated at room temperature for 10 minutes. Luminescence was measured using an Envision plate reader (Perkin Elmer) and the relative luminescence at each compound concentration, compared to DMSO alone, was calculated. GI50 were determined using a 4-parameter curve fit in Dotmatics (Bishops Stortford, UK).

Sequence of MAOA (P21397 whole entry, species assumed): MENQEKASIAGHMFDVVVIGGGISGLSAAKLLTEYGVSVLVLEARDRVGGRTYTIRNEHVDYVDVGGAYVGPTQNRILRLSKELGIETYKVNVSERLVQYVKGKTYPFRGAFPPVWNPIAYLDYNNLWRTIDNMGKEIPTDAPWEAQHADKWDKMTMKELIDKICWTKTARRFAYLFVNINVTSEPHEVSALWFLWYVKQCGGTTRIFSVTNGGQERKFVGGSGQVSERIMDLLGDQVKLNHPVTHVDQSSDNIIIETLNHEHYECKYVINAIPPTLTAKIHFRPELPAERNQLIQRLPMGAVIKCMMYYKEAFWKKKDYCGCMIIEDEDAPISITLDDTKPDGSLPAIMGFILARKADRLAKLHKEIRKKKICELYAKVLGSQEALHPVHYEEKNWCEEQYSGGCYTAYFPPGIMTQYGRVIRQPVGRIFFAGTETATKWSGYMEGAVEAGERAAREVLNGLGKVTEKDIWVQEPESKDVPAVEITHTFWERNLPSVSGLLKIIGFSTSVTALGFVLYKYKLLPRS
Sequence of GABAA (P14867 28-456): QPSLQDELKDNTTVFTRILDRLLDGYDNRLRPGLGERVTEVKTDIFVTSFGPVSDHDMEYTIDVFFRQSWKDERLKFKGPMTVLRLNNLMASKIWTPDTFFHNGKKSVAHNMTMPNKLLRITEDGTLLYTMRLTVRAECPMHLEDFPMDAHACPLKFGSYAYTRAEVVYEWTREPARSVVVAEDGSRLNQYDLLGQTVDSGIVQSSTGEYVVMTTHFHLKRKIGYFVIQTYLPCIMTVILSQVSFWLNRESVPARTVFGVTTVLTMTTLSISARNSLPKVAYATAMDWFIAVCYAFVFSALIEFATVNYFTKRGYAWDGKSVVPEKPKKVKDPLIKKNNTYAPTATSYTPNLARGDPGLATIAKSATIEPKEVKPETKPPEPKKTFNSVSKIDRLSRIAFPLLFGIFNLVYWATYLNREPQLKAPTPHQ
Sequence of GABAA (P47870 26-512): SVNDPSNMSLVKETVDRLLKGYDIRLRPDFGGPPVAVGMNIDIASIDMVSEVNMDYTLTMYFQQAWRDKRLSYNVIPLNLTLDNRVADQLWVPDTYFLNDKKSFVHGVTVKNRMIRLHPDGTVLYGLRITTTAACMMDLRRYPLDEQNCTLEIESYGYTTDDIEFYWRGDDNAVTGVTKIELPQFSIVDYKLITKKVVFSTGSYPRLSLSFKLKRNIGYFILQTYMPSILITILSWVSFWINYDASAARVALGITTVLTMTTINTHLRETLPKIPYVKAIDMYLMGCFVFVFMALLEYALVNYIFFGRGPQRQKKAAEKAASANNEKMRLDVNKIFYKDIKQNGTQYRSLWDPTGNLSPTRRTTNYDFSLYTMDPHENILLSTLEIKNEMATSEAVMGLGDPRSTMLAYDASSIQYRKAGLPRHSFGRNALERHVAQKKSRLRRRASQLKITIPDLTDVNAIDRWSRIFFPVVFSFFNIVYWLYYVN
Sequence of GABAA (P18507 40-475): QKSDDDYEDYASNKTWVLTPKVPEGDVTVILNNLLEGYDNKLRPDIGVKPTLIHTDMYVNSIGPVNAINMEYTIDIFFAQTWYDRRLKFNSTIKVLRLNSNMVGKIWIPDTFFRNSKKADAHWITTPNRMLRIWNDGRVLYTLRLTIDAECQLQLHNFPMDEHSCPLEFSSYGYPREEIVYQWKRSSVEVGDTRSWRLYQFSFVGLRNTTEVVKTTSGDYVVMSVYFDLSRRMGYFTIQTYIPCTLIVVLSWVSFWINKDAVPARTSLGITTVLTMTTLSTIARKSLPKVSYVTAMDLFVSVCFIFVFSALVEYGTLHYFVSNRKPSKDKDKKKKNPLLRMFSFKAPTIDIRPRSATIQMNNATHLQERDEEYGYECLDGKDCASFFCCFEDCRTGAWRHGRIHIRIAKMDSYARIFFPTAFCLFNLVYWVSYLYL
Sequence of PDE4D2 (Q08499 303-809 limits assumed): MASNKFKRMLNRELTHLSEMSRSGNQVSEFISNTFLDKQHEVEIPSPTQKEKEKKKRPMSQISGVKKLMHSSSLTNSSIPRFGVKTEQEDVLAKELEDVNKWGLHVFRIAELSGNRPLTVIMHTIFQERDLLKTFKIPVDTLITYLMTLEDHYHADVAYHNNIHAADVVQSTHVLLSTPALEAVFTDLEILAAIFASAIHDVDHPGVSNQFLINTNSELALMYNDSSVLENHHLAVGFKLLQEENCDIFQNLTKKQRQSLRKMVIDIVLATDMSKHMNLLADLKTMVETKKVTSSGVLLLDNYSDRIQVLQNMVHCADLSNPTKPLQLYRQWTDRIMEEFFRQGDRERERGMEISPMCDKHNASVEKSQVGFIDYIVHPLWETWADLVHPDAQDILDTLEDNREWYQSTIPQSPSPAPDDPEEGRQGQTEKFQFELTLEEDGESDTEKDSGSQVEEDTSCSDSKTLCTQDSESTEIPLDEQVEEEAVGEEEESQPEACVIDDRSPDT

By IC50 is commonly meant the concentration that inhibits the measured activity by half. What is called EC50 is the concentration at which the effect is half-maximal. Low values mean an effect from little substance, high ones a need for much substance. Usually GI50 stands for the concentration at which growth is held to half of that of the control. `Cn1c(=O)c2c(c3cc(Nc4ccnc(F)c4Cl)ccc31)N[C@@H](C1CC1)C(F)(F)CO2` [compound 17, (S)-10-((3-chloro-2-fluoropyridin-4-yl)amino)-2-cyclopropyl-3,3-difluoro-7-methyl-1,2,3,4-tetrahydro-[1,4]oxazepino[2,3-c]quinolin-6(7H)-one]: the IC50 in assay [1], in assay [2] (read-out: RC50 (IC50)), in assay [4] and in assay [6] (read-out: RC50 (IC50)) was more than 10 µM each time. The Emax in assay [1] (GABAA, Ion Channel, Blocker, read-out: Max Response) amounted to 0%; in assay [2] (read-out: Max Response), 0%; in assay [3] (HTR1A, cAMP, Agonist, read-out: Max Response) it was 45.6%; in assay [4] (ADRA2A, cAMP, Antagonist, read-out: Max Response), 0%; in assay [6] (read-out: Max Response) it was 15%. In addition, the EC50 in assay [3] is more than 10 µM. The “ARID3A mRNA expression in tumor xenografts” value in assay [5] was “significant increase in ARID3A mRNA expression”. For the same compound, the concentration for 50% growth inhibition (GI50) in assay [7] stood at 1.38 µM.
